Experiments:
Scenedesmus acutus [1] = assay: Phytotoxicity against Scenedesmus acutus assessed as inhibition of chlorophyll content after 16 hr by spectrophotometry relative to untreated control; type: functional
Scenedesmus acutus [2] = assay: Growth inhibition of Scenedesmus acutus assessed as packed cell volume per ml of algal culture volume after 16 hr (reference value: 3.8 ul pcv/ml); type: functional

O=C1C2=C(CCCC2)C(=O)N1c1ccc(Br)cc1F
inhibition (INH) (Scenedesmus acutus [1]): 79%
Activity (Scenedesmus acutus [2]): 2.1 uL/ml

CNc1ncnc2nc(-c3ccc(Cl)cc3)nn12
inhibition (INH) (Scenedesmus acutus [1]): 8.07%
Activity (Scenedesmus acutus [2]): 3.7 uL/ml

Nc1ncnc2nc(-c3ccc(Cl)cc3F)nn12
inhibition (INH) (Scenedesmus acutus [1]): 32.61%
Activity (Scenedesmus acutus [2]): 3.1 uL/ml

NC1=NC=NC2=NC(c3ccc(Cl)cc3F)NN12 (stereo not given)
inhibition (INH) (Scenedesmus acutus [1]): 10.39%
Activity (Scenedesmus acutus [2]): 3.4 uL/ml

Nc1ncnc2nc(-c3ccc(Cl)cc3)nn12
inhibition (INH) (Scenedesmus acutus [1]): 25.55%
Activity (Scenedesmus acutus [2]): 3.2 uL/ml

NC1=NC=NC2=NC(c3ccc(Cl)cc3)NN12 (stereo not given)
inhibition (INH) (Scenedesmus acutus [1]): 4.81%
Activity (Scenedesmus acutus [2]): 3.6 uL/ml

CCN/C(=N\C=N\C#N)N/N=C(\C)c1ccccc1
inhibition (INH) (Scenedesmus acutus [1]): 27.93%
Activity (Scenedesmus acutus [2]): 3.6 uL/ml

CN/C(=N\C=N\C#N)N/N=C/c1ccccc1
inhibition (INH) (Scenedesmus acutus [1]): 32.97%
Activity (Scenedesmus acutus [2]): 3.3 uL/ml

CN/C(=N\C=N\C#N)N/N=C(\C)c1ccccc1
inhibition (INH) (Scenedesmus acutus [1]): 6.92%
Activity (Scenedesmus acutus [2]): 3.8 uL/ml

C/C(=N\N/C(N)=N/C=N/C#N)c1ccc(Cl)cc1
inhibition (INH) (Scenedesmus acutus [1]): 37.18%
Activity (Scenedesmus acutus [2]): 3.4 uL/ml

COc1ccc(/C=N/N/C(N)=N/C=N/C#N)cc1
inhibition (INH) (Scenedesmus acutus [1]): 28.77%
Activity (Scenedesmus acutus [2]): 3 uL/ml

N#C/N=C/N=C(\N)N/N=C/c1ccc(Cl)cc1F
inhibition (INH) (Scenedesmus acutus [1]): 41.65%
Activity (Scenedesmus acutus [2]): 3 uL/ml

N#C/N=C/N=C(\N)N/N=C/c1ccc(Cl)cc1
inhibition (INH) (Scenedesmus acutus [1]): 29.21%
Activity (Scenedesmus acutus [2]): 3.1 uL/ml

O=C1C2=C(CCCC2)C(=O)N1c1ccc(Cl)cc1 [CHLOROPHTHALIUM]
inhibition (INH) (Scenedesmus acutus [1]): 2.34%
Activity (Scenedesmus acutus [2]): 2.5 uL/ml

CCOc1cc(Oc2ccc(C(F)(F)F)cc2Cl)ccc1[N+](=O)[O-] [OXYFLUORFEN]
inhibition (INH) (Scenedesmus acutus [1]): 2.24%
Activity (Scenedesmus acutus [2]): 1.4 uL/ml

Source: ChEMBL document CHEMBL3045801, “Synthesis of 1, 2, 4-Triazolo[1, 5-a]-1, 3, 5-triazine Derivatives for Phytotoxic Activity” (J Pestic Sci, 1995)
